Values quoted from earlier work, collected in paper PMC2805559 (Journal of medicinal chemistry, 2009).

Tests used:
[1] = system: tumor; conditions: ref [1]
[2] = system: Hsp90-IP6K2 interaction; conditions: ref [16]

Compound	anti-tumor activity [1]	effect on binding of IP6K2 to Hsp90 [2]
Sansalvamide A	micromolar potency	
C=CCNC1=C2C[C@@H](C)C[C@H](OC)[C@H](O)[C@@H](C)/C=C(\C)[C@H](OC(N)=O)[C@@H](OC)/C=C\C=C(/C)C(=O)NC(=CC1=O)C2=O [17-AAG, 17-allylamino, 17-demethoxygeldanamycin]		does not affect the binding
